From a melting point compilation (Tetko et al.; mined from patent text by program, amines drawn as free bases though some values may be those of a salt) come the findings set out here.

Molecules are shown by their SMILES. Structures can show the parent of a compound that is named as a salt. Residues, ends and D or L forms follow the SMILES beside them. *: point of attachment. Tfa = O=C(C(F)(F)F)*; NHPh = c1ccc(N*)cc1 Bounds are passed on as bounds.

What is called melting point is the temperature, or range, at which the solid turns liquid. On to `CC(C)(C)c1cc(Cl)c2c(c1)CNS(=O)(=O)O2`, for which the melting point was 158 to 160 °C.
As for `COc1ccc(CC(=O)Nc2cccc3nc(N[C@@H]4CCc5ccccc54)ccc23)cc1`, the melting point is 175 °C.
The compound `CCOC(=O)CN1C(=O)COc2cc([N+](=O)[O-])ccc21` gave a melting point of 120 to 122 °C.
On to `O=C(Nc1ccc(F)cc1F)c1ccccn1`, for which the melting point lay within 90.5 to 95 °C.
To `Oc1cc(C(O)C2CCCCC2)c2ccccc2n1` (stereo not drawn) belongs over 250 °C; to `Nc1nc(-c2cc(Cl)ccc2Cl)nc(N2C[C@H](O)C[C@H]2CO)n1`, 171 to 173 °C; to `O=CNc1cccc(C(=NOC(=O)C(Cl)Cl)C(=O)O)n1`, 88 to 90 °C.
To `CCCCOc1cc(C(=O)O)cc([N+](=O)[O-])c1C(=O)c1ccc(Cl)cc1` belongs 180 to 182 °C; to `CC1(C)Cc2ccc(Cl)cc2C=[N+]1[O-]`, 88 to 89 °C.
`CC(C)(C)NC(=O)c1nn(-c2ccccc2)c2c1C1CCC2C1` (stereo not drawn) showed a melting point of 101 to 103 °C.
`C#CCN(C(=O)C(F)(F)F)[C@H]1CCc2ccc([N+](=O)[O-])cc21`: the melting point lay in the range of 83 to 85 °C.
On to `COc1cc(C2=NCCO2)cc(OC)c1C(C)=O`, for which the melting point fell in the range of 135 to 137 °C.
The result for `CS(=O)(=O)c1ccccc1-c1cc(CCO)nn1C1CCCCC1` reads 108 °C; that for `Fc1cc2c(c(-c3c(Cl)cccc3Cl)c1)OC(CNC1CC1)C2` (stereo not drawn), 112 to 113 °C.
Compound `Clc1ccc(/C=C/C2=CCN(Cc3ccccc3)CC2)cn1` displayed a melting point of 126 to 128 °C.
To `CCCN(CCC)C1Cc2cccc3c2N(C1)C(=O)CN3` (stereo not drawn) belongs 97 to 99 °C.
`Cc1ccccc1-c1ccc(C(=O)N2Cc3ccc(C(=O)NCCc4ccc5c(c4)OCO5)n3Cc3ccccc32)cc1C` yielded a melting point of 154 to 157 °C.
In turn, `CN(C)C(C(=O)C1CCCCC1)C1(c2ccc(Cl)c(Cl)c2)CCC1` (stereo not drawn) came in with a melting point of 79 to 80 °C.
The result for `COC(=O)C(Cl)Cc1ccc2ccc(Oc3c(Cl)cc(C(F)(F)F)cc3Cl)cc2c1` (stereo not drawn) reads 136 °C; that for `COc1ccc(-c2cc(-c3ccccc3)nc(C)c2C(=O)Cl)cc1OC`, 140 °C; that for `CCNC(=O)N[C@H]1CC[C@H](CCN2CCN(c3cccc4c3CCC4)CC2)CC1`, 198 to 200 °C.
In the case of `O[C@@H]1C=C[C@H](n2cnc3c(NCC(c4ccccc4)c4ccccc4)ncnc32)C1` (racemic), the melting point was 165 to 169 °C.
Turning to `NS(=O)(=O)c1ccc(-c2cccc(-c3nc(-c4ccc(Cl)cc4)cc(C(F)(F)F)n3)c2)s1`, the melting point came out at 226 °C.
As for `COCCNC(=O)c1ccc(C)c(-n2c(C)cc(OCc3ccccc3CNC(=O)Nc3cc(C(C)(C)C)nn3-c3ccc(Cl)c(O)c3)c(Cl)c2=O)c1`, the melting point is 182 to 183 °C.
Take `COc1cccc(-c2nc(N)c(C(N)=O)nc2-c2ccc(=O)n(C(C)C)c2)c1`: the melting point came to 192 °C.
Consider `CC(=O)Nc1ccc(-c2cccc(-n3c(-c4cccnc4N)nc4cc(-c5cccc(NC(C)=O)c5)c(-c5cccnc5)nc43)c2)cc1`, for which the melting point was 166 to 168 °C.
In the case of `O=C1c2cccc(-n3c(=O)[nH]c4cnccc4c3=O)c2C2CC3(CCN12)OCCO3` (stereo not drawn), the melting point turned out to be 204 °C.
As to `CCOC(=O)c1nnc2ccc(-c3cccs3)cc2c1O`, the melting point lay within 258 to 260 °C.
In turn, `CNC(=S)C1(c2ccccn2)CCCO1` (stereo not drawn) showed a melting point of 115 °C.
Take `C[C@H](NC(=O)C(F)(F)F)C(=O)N1CCC[C@H]1C(=O)Nc1ccccc1` (Tfa-Ala-Pro-NHPh): the melting point is 204 to 207 °C.
The compound `COCc1cnc2c([N+](=O)[O-])ccc(C)c2c1Cl` had a melting point of 120 to 124 °C.
The compound `CCCOc1cc(CCC(=O)O)ccc1OCCCc1cn(-c2ccc(C(F)(F)F)cn2)nc1OCC` showed a melting point of 106 to 107 °C.
Turning to `O=S1(=O)Cc2ccc(Cl)cc2C(c2cccc(F)c2)=NN1`, the melting point lay in the range of 195 to 198 °C.
To `COc1ccc2c(c1)C(C)CC1C2CCC2(C)C(=O)CCC12` (stereo not drawn) belongs 108 to 109 °C; to `CC(C)(C)C(=O)Oc1ccc(C(O)c2ccc(OC(=O)C(C)(C)C)cc2)cc1`, 148 to 152 °C; to `C[Si](C)(C)C#CC1(OC(=O)c2ccccc2)C(COC(=O)c2ccc(Cl)cc2)OC(OC(=O)c2ccccc2)C1OC(=O)c1ccccc1` (stereo not drawn), 63 to 66 °C.
In turn, `CC(C)CC(=O)Nc1cccc(-c2ccnc3c(-c4ccc(-c5ccccc5)cc4)cnn23)c1` displayed a melting point of 157 to 160 °C.
For `Cc1cnc(N2CCN(CC[C@H]3CC[C@H](NC(=O)CC4CCOCC4)CC3)CC2)c2ccoc12`, the melting point is 206 °C.
In turn, `CCOC(=O)[C@H]1O[C@@H]1C(=O)N[C@H](COCC(C)C)C(C)C` gave a melting point of 40.5 to 45 °C.
`O=C(c1cc2ccccc2s1)C1CCN(CCc2ccccc2)CC1`: the melting point is 129 to 130 °C.
For the compound `Cc1ccc(-c2ncc3c(n2)CCCCC3)nc1-c1ccccc1`, the melting point fell in the range of 151 to 154 °C.
`O=C(Nc1nc(-c2ccco2)c(C(=O)c2ccn(Cc3ccccc3)c(=O)c2)s1)c1ccncc1` showed a melting point of 288 to 291 °C.
`Cc1cc(C(=O)Nc2ccc(SC(F)(F)F)c(Cl)c2)c(O)c(C23CC4CC(CC(C4)C2)C3)c1`: the melting point is 205 to 206 °C.
With `CNc1ccccc1C(=O)c1ccccc1`, the melting point was in the range of 66 to 68 °C.
With `COc1cnc(CO)cc1OC`, the melting point lay within 122 to 124 °C.
The result for `CC1(c2cccc(NS(C)(=O)=O)c2)C2CN(C(=O)CCc3cccs3)CC21` (stereo not drawn) reads 184 °C; that for `Cc1ccc(C2c3c(C)c(N4Cc5cc(Cl)c(Cl)cc5C4)c(C)c(C)c3OC2(C)C)cc1` (stereo not drawn), 201 to 203 °C.
Turning to `COc1ccc2c(-c3sccc3C)noc2c1Cl`, the melting point lay within 154 to 156 °C.
As to `CCOC(=O)c1ncn2c1[C@@H]1CCCN1C(=O)c1c-2ccc(F)c1F`, the melting point fell in the range of 199 to 200 °C.
For the compound `Cc1nc(Cl)c([N+](=O)[O-])c(NCC(C)(C)N)c1C`, the melting point lay within 89 to 94 °C.
To `COc1ccc(Cn2cc[nH]c2=S)cc1` belongs 140 °C; to `CCCN(C(C)C)C1COc2cccc(C(=O)NC(C)C)c2C1` (stereo not drawn), 124 °C; to `O=C(Nc1c(Cl)cncc1Cl)c1ccc(OC(F)F)c2oc3ccc([N+](=O)[O-])cc3c12`, over 270 °C.
In turn, `COc1cc2c(c3c1OC(C)(C)C3)C(c1cccc(NC(=O)CS(C)(=O)=O)c1)=NC(C)(C)C2` had a melting point of 135 to 140 °C.
In turn, `CCSC1COC(Cn2cncn2)(c2ccc(Cl)cc2Cl)C1` (stereo not drawn) came in with a melting point of 64 °C.
The result for `Cc1ccccc1C(=O)NC(NC(=S)Nc1cccnc1)C(C)(C)C` (stereo not drawn) reads 186 to 187 °C; that for `COC(=O)Nc1nc2cc(S(=O)CC3CC3)ccc2[nH]1` (stereo not drawn), 223 to 224 °C.
The result for `COc1ccc(NS(=O)(=O)c2ccc(N3CCC(NC[C@H](O)COc4cccc5[nH]c6ccccc6c45)CC3)cc2)cc1OC` reads 58 to 64 °C.
Compound `Cc1ccc(-c2nnnn2C)c(S(N)(=O)=O)c1` yielded a melting point of 161 to 171 °C.
Turning to `CCOC(=O)N1CCN(CCNc2ncnc3c2sc2nc(-c4ccoc4)c4c(c23)CC(C)(C)CC4)CC1`, the melting point lay in the range of 85.1 to 86.4 °C.
Consider `CCC(CO)Nc1nc(C)nc2c(C)nn(C)c12` (stereo not drawn), for which the melting point lay in the range of 165 to 168 °C.
`CNC(=O)c1cccc(-c2ccc(OC(C)C(O)CCc3cccnc3)cc2)c1` (stereo not drawn): the melting point lay in the range of 54 to 55 °C.
Compound `O=C1N=C(N2CCOCC2)SC1=Cc1ccc(F)c(-c2ccc(O)c(C34CC5CC(CC(C5)C3)C4)c2)c1` came in with a melting point of 338 to 343 °C.
`Cc1cc(-n2ccnc2)c2cccc(OCc3c(Cl)ccc(S(=O)(=O)N4CCC[C@H]4C(=O)NCCN4CCCCC4)c3Cl)c2n1` returned a melting point of 108 °C.
To `CCOc1nn(Cc2ccc(OCc3coc(-c4ccccc4)n3)cc2)cc1CCC(=O)O` belongs 135 to 136 °C; to `COC(=O)c1nc(-c2ccc(Cl)c(OC)c2F)nc(N)c1OC`, 155 to 158 °C.
Turning to `C[C@@H]1CN(C(=O)OC(C)(C)C)C[C@H]2Cc3cc(Br)c(CO)nc3N21`, the melting point was 110 to 112 °C.
To `NS(=O)(=O)c1ccc(-c2cnn(CC=C(Cl)Cl)c(=O)c2-c2ccc(F)cc2)cc1` belongs 184 to 185 °C; to `O=c1ccc2cc([C@H](c3cccc(C(F)(F)F)c3)n3cncn3)ccc2[nH]1`, 176 °C.
Take `COc1ccc(C(=O)Nc2ccccc2)cc1NS(=O)(=O)c1sc(NC(C)=O)nc1C`: the melting point was 260 to 261 °C.
In turn, `O=C(NC(=O)C(Cl)CCl)Nc1cccc(Cl)c1Cl` (stereo not drawn) yielded a melting point of 195 to 196 °C.
Turning to `CC(=O)c1cc(C(F)(F)F)nn1-c1ccc(NC(=O)c2cccnc2F)cc1`, the melting point fell in the range of 188 to 189 °C.
`CC(C)CC(Sc1ccccc1)c1c(O)cc(-c2ccccc2)oc1=O` (stereo not drawn): the melting point was 154 to 156 °C.
The result for `CCCCC(C(=O)OC)c1cccc(C(=O)c2cc3cc(C(=O)OC)sc3s2)c1` (stereo not drawn) reads 95 °C; that for `Cc1ccc(S(=O)(=O)N2CCC3(CCc4ccccc43)CC2)cc1`, 140 to 142 °C.
As for `COCc1c[nH]c(-c2ccc(OCc3ccccc3)cc2)n1`, the melting point was in the range of 146 to 148 °C.
`NC(=O)NC1CCC(c2ccccc2-n2nc(C(F)(F)F)cc2C(F)(F)F)CC1` (stereo not drawn) showed a melting point of 185 to 188 °C.
The result for `CCNCC1CCN(c2c(F)cc3c(=O)c(C(=O)O)cn(CC)c3c2F)C1` (stereo not drawn) reads 208 to 210 °C; that for `CCCc1c(C(=O)N(C)Cc2ccc3c(Br)c(OCc4nnn[nH]4)ccc3c2)cnn1-c1ccccc1`, 75 to 85 °C.
In the case of `CC(CS(=O)(=O)c1ccccc1)C1CCC2C3CC=C4C(C)(C)C(O)CCC4(C)C3CCC12C` (stereo not drawn), the melting point is 176 to 181 °C.
`Cc1ccc(-c2ccc3c(c2)C=C(C(=O)O)CO3)cc1` showed a melting point of 236 to 237 °C.
`COc1ccc(C2(O)OC(=O)C(c3cc(C)c4nsnc4c3)=C2Cc2cc(OC)c(OC3CCCCC3)c(OC)c2)cc1F` (stereo not drawn) had a melting point of 163 to 164 °C.
Regarding `CCc1ccc(Nc2ncc(Cc3ccc(O)nc3)c3ncccc23)cc1Br`, the melting point lay within 262 to 265 °C.
